Test systems include M14 melanoma; EKVX NSCLC; UACC-257 melanoma; RXF 393 renal; NCI/ADR-RES ovarian; OVCAR-8 ovarian; SR leukemia; OVCAR-5 ovarian; HS 578T breast; SW-620 colon.
Common to all, as to assay: DTP human tumour cell line panel, 48 h

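Cultured in 96-well plates, cells were exposed to test compound for 48 hours across five concentrations. At the GI50, growth is halved. TGI: concentration producing complete growth inhibition.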

As to `C=C(C)[C@@H]1CC[C@]2(COCCCN)CC[C@]3(C)[C@H](CC[C@@H]4[C@@](C)(CCCNCCCN)[C@H](C(=C)C)CC[C@]43C)[C@@H]12`, the GI50 (commonly the concentration at which growth is held to half of that of the control) is 1900 nM in the experiment on M14 melanoma; 1710 nM in the experiment on EKVX NSCLC; 1880 nM with UACC-257 melanoma; 1590 nM with RXF 393 renal; 1.88 µM in the experiment on NCI/ADR-RES ovarian; 1910 nM with OVCAR-8 ovarian. The GI50 with SR leukemia was 1320 nM; in the experiment on OVCAR-5 ovarian it was 1710 nM; in the experiment on HS 578T breast, 2160 nM; in the experiment with SW-620 colon it was 1840 nM. Further, the TGI (commonly the concentration giving total growth inhibition) with M14 melanoma was determined as 3.62 µM; in the experiment with EKVX NSCLC, 3.21 µM; in the experiment with UACC-257 melanoma it was 3.67 µM; in the experiment with RXF 393 renal it was 2.98 µM; with NCI/ADR-RES ovarian it was 3.63 µM; with OVCAR-8 ovarian, 3.61 µM. Further, the TGI was 3.59 µM with SR leukemia, 3.12 µM in the experiment with OVCAR-5 ovarian, 5.54 µM with HS 578T breast and 3.79 µM in the experiment on SW-620 colon.
On to `CC(C)(C)c1cc([N+](=O)[O-])cc([N+](=O)[O-])c1O`, for which the total growth inhibition concentration (TGI) in the experiment on M14 melanoma, with EKVX NSCLC, in the experiment with UACC-257 melanoma, with RXF 393 renal, in the experiment on NCI/ADR-RES ovarian and with OVCAR-8 ovarian was above 10 µM in each case. Further, the TGI in the experiment with SR leukemia, with OVCAR-5 ovarian, in the experiment on HS 578T breast and with SW-620 colon was above 10 µM throughout.
Regarding `Cc1ccc(C2=C(c3ccc(C)cc3)C3(c4ccc(C)cc4)C4C(=O)OC(=O)C4C2(c2ccc(C)cc2)S3=O)cc1` (stereo not drawn), the GI50 with M14 melanoma is 9700 nM; in the experiment with EKVX NSCLC, 42000 nM; in the experiment with UACC-257 melanoma, above 100000 nM; in the experiment on RXF 393 renal, 13900 nM; in the experiment with NCI/ADR-RES ovarian, 46.4 µM; in the experiment with OVCAR-8 ovarian, 25700 nM. For the same compound, the GI50 is 25900 nM in the experiment with SR leukemia, 96400 nM in the experiment with OVCAR-5 ovarian, 21300 nM in the experiment with HS 578T breast and 38100 nM in the experiment on SW-620 colon. The TGI in the experiment with M14 melanoma is 32.8 µM; in the experiment on EKVX NSCLC, above 100 µM; in the experiment on UACC-257 melanoma, above 100 µM; in the experiment on RXF 393 renal, 30.4 µM; with NCI/ADR-RES ovarian it was above 100 µM; in the experiment with OVCAR-8 ovarian, above 100 µM. For the same compound, the TGI in the experiment on SR leukemia, in the experiment with OVCAR-5 ovarian, with HS 578T breast and in the experiment on SW-620 colon was above 100 µM throughout.
On to `COc1cccc2c1C(=N)c1c(O)c3c(c(O)c1C2=O)C[C@@](O)(C(C)=O)C[C@@H]3O[C@H]1C[C@H](N)[C@H](O)[C@H](C)O1`, for which the GI50 is 496 nM in the experiment with M14 melanoma; 2530 nM in the experiment with EKVX NSCLC; 1340 nM in the experiment with UACC-257 melanoma; 45.3 µM in the experiment with NCI/ADR-RES ovarian; 327 nM with OVCAR-8 ovarian; 21.7 nM with SR leukemia. In addition, the GI50 is 512 nM in the experiment on OVCAR-5 ovarian and 1660 nM with HS 578T breast. The total growth inhibition concentration (TGI) in the experiment with M14 melanoma was 4.78 µM; in the experiment on EKVX NSCLC, 12.6 µM; in the experiment with UACC-257 melanoma it was 8.99 µM; with RXF 393 renal it was 3.58 µM; in the experiment on NCI/ADR-RES ovarian, above 100 µM; in the experiment on OVCAR-8 ovarian, 1.95 µM. The TGI in the experiment on SR leukemia worked out at 6.08 µM; with OVCAR-5 ovarian it was 5.68 µM; in the experiment with HS 578T breast it was 8.31 µM; in the experiment on SW-620 colon it was 3.65 µM.
Take `COc1ccc(C(C#N)NC23CC4CC(CC(C4)C2)C3)cc1` (stereo not drawn): the TGI in the experiment with M14 melanoma, with EKVX NSCLC, in the experiment with UACC-257 melanoma, with RXF 393 renal, with NCI/ADR-RES ovarian and in the experiment on OVCAR-8 ovarian was above 100 µM in each case. The concentration for total growth inhibition (TGI) with SR leukemia, with OVCAR-5 ovarian, in the experiment with HS 578T breast and in the experiment with SW-620 colon was above 100 µM in each case.
For the compound `COC(=O)c1ccc2[nH]c(O)c(C(=Nc3ccc(N(C)C(=O)CN4CCN(C)CC4)cc3)c3ccc4c(c3)OCO4)c2c1`, the GI50 in the experiment on M14 melanoma is 538 nM; in the experiment on EKVX NSCLC, 1400 nM; with UACC-257 melanoma, 2270 nM; in the experiment with RXF 393 renal, 360 nM; in the experiment on NCI/ADR-RES ovarian, 10.7 µM; in the experiment on OVCAR-8 ovarian, 774 nM. Further, the GI50 was 232 nM in the experiment on SR leukemia, 1710 nM in the experiment with OVCAR-5 ovarian, 144 nM in the experiment with HS 578T breast and 348 nM in the experiment on SW-620 colon. For the same compound, the concentration for total growth inhibition (TGI) in the experiment with M14 melanoma stood at 1.8 µM; in the experiment on EKVX NSCLC, 3.45 µM; with UACC-257 melanoma, 6.77 µM; in the experiment on RXF 393 renal it was 1.52 µM; in the experiment on NCI/ADR-RES ovarian, 34 µM; in the experiment with OVCAR-8 ovarian it was 7.34 µM. Also, the concentration for total growth inhibition (TGI) in the experiment with SR leukemia turned out to be 2.93 µM; in the experiment with OVCAR-5 ovarian, 3.72 µM; with HS 578T breast, 2.56 µM; with SW-620 colon it was 2.21 µM.
`Nc1ncnc2c1ncn2C1C=C(CO)C(O)C1O` (stereo not drawn): the total growth inhibition concentration (TGI) in the experiment on M14 melanoma is above 100 µM; with EKVX NSCLC it was above 100 µM; in the experiment on UACC-257 melanoma, above 100 µM; in the experiment with RXF 393 renal, 42.8 µM; in the experiment with NCI/ADR-RES ovarian, 74.8 µM; in the experiment with OVCAR-8 ovarian, above 100 µM. In addition, the TGI in the experiment with SR leukemia was 3.24 µM; in the experiment on OVCAR-5 ovarian it was above 100 µM; with HS 578T breast, above 100 µM; in the experiment with SW-620 colon, above 86.8 µM.
Consider `C[C@]12CCc3sc(Nc4ccc(OC(F)(F)F)cc4)nc3C1=CC[C@@H]1[C@@H]2CC[C@]2(C)C(=O)CC[C@@H]12`, for which the GI50 in the experiment on M14 melanoma was 3290 nM; with EKVX NSCLC, 2630 nM; in the experiment on UACC-257 melanoma, 4890 nM; in the experiment with RXF 393 renal it was 500 nM; in the experiment with NCI/ADR-RES ovarian, 3.93 µM; in the experiment with OVCAR-8 ovarian it was 3490 nM. The GI50 is 2740 nM with SR leukemia, 9060 nM with OVCAR-5 ovarian, 1480 nM in the experiment with HS 578T breast and 2210 nM in the experiment on SW-620 colon. In addition, the TGI with M14 melanoma amounted to 8.72 µM; in the experiment on EKVX NSCLC, 17.4 µM; with UACC-257 melanoma, 28.8 µM; in the experiment on RXF 393 renal, 2.21 µM; in the experiment on NCI/ADR-RES ovarian, 20.2 µM; in the experiment with OVCAR-8 ovarian, 25 µM. In addition, the TGI in the experiment on SR leukemia was above 100 µM; in the experiment on OVCAR-5 ovarian it was 40.3 µM; with HS 578T breast, 5.22 µM; with SW-620 colon it was 5 µM.
With `O=C(NC(=O)c1c(F)cccc1F)Nc1cccc(Oc2ncc(Cl)cn2)c1`, the TGI in the experiment on M14 melanoma is above 100 µM; in the experiment on EKVX NSCLC it was above 100 µM; in the experiment on UACC-257 melanoma it was above 100 µM; in the experiment on RXF 393 renal, 79.5 µM; with NCI/ADR-RES ovarian it was above 100 µM; in the experiment with OVCAR-8 ovarian it was above 100 µM. In addition, the concentration for total growth inhibition (TGI) in the experiment with SR leukemia was above 73.8 µM; in the experiment with OVCAR-5 ovarian, above 100 µM; in the experiment with HS 578T breast, above 92.1 µM; with SW-620 colon, above 100 µM.

These data come from PubChem BioAssay (NCI).
